The values that follow come from US10316020B2, “Indane derivatives and the use thereof as soluble guanylate cyclase activators” (NOVARTIS AG, priority 2015, dated 2019).

Molecules are shown by their SMILES.

Data set [1] concerns the target T1, soluble guanylate cyclase (GUCYA3/GUCYB3) overexpressed in CHO cells (Homo sapiens, UniProt Q02108+Q02153).
T1 construct: expressed in transfected cells
T1 sequence (Q02108 1-690 partner): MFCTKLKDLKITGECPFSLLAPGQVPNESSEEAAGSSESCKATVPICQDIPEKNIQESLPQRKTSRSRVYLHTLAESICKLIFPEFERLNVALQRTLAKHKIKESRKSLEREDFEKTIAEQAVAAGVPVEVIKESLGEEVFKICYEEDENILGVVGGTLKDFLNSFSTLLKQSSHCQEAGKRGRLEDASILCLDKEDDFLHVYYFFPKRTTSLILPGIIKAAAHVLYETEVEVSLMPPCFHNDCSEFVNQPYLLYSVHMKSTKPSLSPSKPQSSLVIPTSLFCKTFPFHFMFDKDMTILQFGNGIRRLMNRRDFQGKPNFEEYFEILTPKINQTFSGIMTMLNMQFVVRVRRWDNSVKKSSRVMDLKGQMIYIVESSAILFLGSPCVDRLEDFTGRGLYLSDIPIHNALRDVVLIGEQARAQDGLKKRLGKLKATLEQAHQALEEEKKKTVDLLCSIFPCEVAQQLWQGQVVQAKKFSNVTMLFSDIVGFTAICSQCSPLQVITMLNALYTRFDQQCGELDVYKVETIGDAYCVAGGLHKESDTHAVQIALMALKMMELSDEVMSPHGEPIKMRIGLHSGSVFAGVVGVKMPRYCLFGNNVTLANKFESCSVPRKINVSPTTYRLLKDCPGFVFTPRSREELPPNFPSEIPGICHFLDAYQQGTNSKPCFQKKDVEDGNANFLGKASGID
T1 sequence (Q02153 1-619): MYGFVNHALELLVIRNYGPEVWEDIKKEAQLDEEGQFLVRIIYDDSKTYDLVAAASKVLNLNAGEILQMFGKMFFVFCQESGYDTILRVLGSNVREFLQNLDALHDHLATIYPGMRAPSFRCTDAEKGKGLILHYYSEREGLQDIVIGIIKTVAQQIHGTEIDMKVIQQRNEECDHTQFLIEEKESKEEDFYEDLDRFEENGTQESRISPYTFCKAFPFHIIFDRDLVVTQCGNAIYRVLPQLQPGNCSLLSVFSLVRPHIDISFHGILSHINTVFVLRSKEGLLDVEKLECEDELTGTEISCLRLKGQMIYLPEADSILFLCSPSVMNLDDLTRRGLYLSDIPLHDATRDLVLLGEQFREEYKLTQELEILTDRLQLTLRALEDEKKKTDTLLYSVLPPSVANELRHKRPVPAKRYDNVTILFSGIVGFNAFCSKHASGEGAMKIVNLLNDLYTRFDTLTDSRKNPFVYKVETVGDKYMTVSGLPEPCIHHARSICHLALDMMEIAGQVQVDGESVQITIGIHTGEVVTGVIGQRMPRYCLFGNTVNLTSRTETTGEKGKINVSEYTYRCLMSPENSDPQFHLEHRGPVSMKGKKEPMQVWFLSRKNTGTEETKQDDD
The data set is described as follows: CHO cellular assay (cGMP production, HTRF). To be noted: CHO cellular assay, as repeated in Table 2; read-out: EC50 from biological Example #1. The class given is cell-based. In outline:
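Stably transfected CHO-K1 clone expressing human sGC α/β subunits, treated 1 h at room temperature with compounds in HBSS with 0.1% BSA, 1 mM IBMX and 20 uM ODQ (0.5% DMSO). cGMP measured by HTRF and interpolated from standard curve. EC50 from 4-parameter sigmoidal fit.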
On the technique in general: In TR-FRET formats the signal depends on donor and acceptor labels being close together.

A short description of data set [2]: Pharmacokinetic clearance in intravenously dosed rats. The class given is in vivo. The note with it: male, Sprague-Dawley, rat, whole blood, iv, 0.5 mg/kg. How it is done: Sprague-Daley rats were administered sGC activators intravenously to assess the systemic clearance rates of the compounds from blood by non-compartmental analysis. Compounds with high clearance rates may be less prone to exert unwanted systemic (non-local) pharmocoligcal effects, which may be a benefical property for a compound intended to be dosed via topical ocular administration with the aim of exerting a pharmacological reponse locally in the eye.
In order to assess the pharmacokinetic parameters, male Sprague-Dawley rats were given 1 mL/Kg of the dosing solution (delineated in the table below) containing a test article (0.5 mg/kg) per kg of body weight via slow intravenous injection into an indwelling jugular vein catheter in a discrete PK study. Alternatively, male Sprague-Dawley rats were given 1 mL/Kg of the dosing solution containing three test articles (0.5 mg/kg each, 1.5 mg/kg total) per kg of body weight via slow intravenous injection into an indwelling jugular vein catheter in a cassette PK study. Diet and water was provided ad libitum without exception. At specified time following a single intravenous bolus injection, approximately 100 μL of whole blood was collected from indwelling catheter in jugular vein. The blood was stored frozen at −20° C. before an LC-MS/MS method was used to quantitate drug levels in the blood. All pharmacokinetic (PK) parameters were derived from concentration-time data by non-compartmental analyses using WinNonlin Phoenix version 6.4 (Certara, St. Louis, Mo.). For the intravenous dose, the concentration of unchanged compound at time 0 was calculated based on a log-linear regression of first two data points to back-extrapolate C(0). The area under the concentration-time curve was calculated using the linear trapezoidal rule.
Data in Table 2 collected using the assay of Biological Example 2 compares compounds from the present invention to other sGC activators previously disclosed PCT/IB2015/055006 filed Jul.

What is called EC50 is the concentration at which the effect is half-maximal. A word on the clearance: it is a measure of how efficiently the substance is removed, as volume per time. Read a high clearance as a high capacity for elimination. In the case of `CCc1cc(OC2CCc3cccc(-c4cccc(-n5ncc(C(=O)O)c5CC)n4)c32)ccc1C1CCN(C(=O)C2CC2)CC1` (single isomer, unassigned; (+)) [(+)-1-(6-(3-(4-(1-(cyclopropanecarbonyl)piperidin-4-yl)-3-ethylphenoxy)-2,3-dihydro-1H-inden-4-yl)pyridin-2-yl)-5-ethyl-1H-pyrazole-4-carboxylic acid], the EC50 in data set [1] is below 0.5 nM. The clearance in data set [2] (i.v. 0.5 mg/kg each, three test articles, Cassette - E (10% propylene glycol, 10% Solutol HS15, PBS)) came to 6.6 mL/min/kg; in data set [2] (i.v. 0.5 mg/kg, Discrete - G (20% propylene glycol, 50% of 20% Solutol HS15, water)), 14 mL/min/kg.
